In ChEMBL document CHEMBL1130934, “Enantioselective synthesis and pharmacology of 11-hydroxy-(1'S,2'R)-dimethylheptyl-delta 8-THC” (Bioorg Med Chem Lett, 1998):

How the values were obtained:
[1] = molecular target: T1, Cannabinoid receptor 1 (Rattus norvegicus, UniProt P20272); experiment: Binding affinity for the cannabinoid brain receptor (CB1) using [3H]CP-55940
[2] = species: Mus musculus; experiment: Compound was evaluated in mouse model for cannabimimetic activity, expressed as as effective dose for antinociception (TF); format: functional
[3] = species: Mus musculus; experiment: Compound was evaluated in mouse model for cannabimimetic activity, expressed as effective dose for spontaneous activity(SA); format: functional
[4] = species: Mus musculus; experiment: Compound was evaluated in mouse model for cannabimimetic activity, expressed as as effective dose for hypothermia (rectal temperature, RT); format: functional
[5] = molecular target: T1, Cannabinoid receptor 1; experiment: Binding affinity for the Cannabinoid receptor using [3H]CP-55940 as radioligand

T1 sequence (P20272 whole entry): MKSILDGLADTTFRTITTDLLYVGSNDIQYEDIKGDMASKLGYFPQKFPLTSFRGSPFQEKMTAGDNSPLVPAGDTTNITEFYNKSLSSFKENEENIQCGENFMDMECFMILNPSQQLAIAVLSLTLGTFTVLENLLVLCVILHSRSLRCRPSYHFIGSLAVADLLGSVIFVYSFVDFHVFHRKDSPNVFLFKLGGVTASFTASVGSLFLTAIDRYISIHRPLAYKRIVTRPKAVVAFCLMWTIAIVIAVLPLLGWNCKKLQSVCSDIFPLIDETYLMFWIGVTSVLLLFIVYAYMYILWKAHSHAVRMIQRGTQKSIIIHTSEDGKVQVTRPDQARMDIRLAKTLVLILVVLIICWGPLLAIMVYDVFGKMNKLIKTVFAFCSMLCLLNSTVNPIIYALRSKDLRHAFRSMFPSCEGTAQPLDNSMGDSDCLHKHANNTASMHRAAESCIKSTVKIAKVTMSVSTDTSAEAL

Compound | Ki [1] | ED50 [2] | ED50 [3] | ED50 [4] | Ki [5]
CCCCC[C@@H](C)[C@H](C)c1cc(O)c2c(c1)OC(C)(C)[C@@H]1CC=C(C)C[C@@H]21 | 0.46 nM | 0.03 µmol/kg | 0.03 µmol/kg | 0.07 µmol/kg | –
CCCCCCC(C)(C)c1cc(O)c2c(c1)OC(C)(C)[C@@H]1CC=C(CO)C[C@@H]21 | – | 0.02 µmol/kg | 0.01 µmol/kg | 0.05 µmol/kg | 0.73 nM
CCCCC[C@@H](C)[C@H](C)c1cc(O)c2c(c1)OC(C)(C)[C@@H]1CC=C(CO)C[C@@H]21 | 0.49 nM | 0.03 µmol/kg | 0.01 µmol/kg | 0.02 µmol/kg | –
CCCCCCC(C)(C)c1cc(O)c2c(c1)OC(C)(C)[C@@H]1CC=C(C)C[C@@H]21 | 0.77 nM | 0.14 µmol/kg | 0.27 µmol/kg | 0.15 µmol/kg | –
